Tests used:
Experiment in all cases: relative viability (nuclei count vs DMSO), 5 days (fraction); higher = more cells survive
CUDC-101 + Bortezomib = compound: C#Cc1cccc(Nc2ncnc3cc(OC)c(OCCCCCCC(=O)NO)cc23)c1 [CUDC-101] + CC(C)C[C@H](NC(=O)[C@H](Cc1ccccc1)NC(=O)c1cnccn1)B(O)O [Bortezomib] (partner 0.002 µM)
Procedure, shortened: (§1)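 Cells from lung cancer lines were seeded into 1536-well plates and, one day later, dosed by pin tool. Treatments were either a single drug or a fixed dose of an anchor drug with five library-drug doses (not always all listed) in √10 steps. After 5 days, nuclei were stained in a one-step fixation (final 0.05% Triton X-100, 1% formaldehyde, 1 ug/ml Hoechst) and counted on 4× images, and relative viability is the treated-to-vehicle nuclei ratio, as the median of duplicate plates.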

[1] = compound: C1=CC=C2C(=C1)N=C(S2)C(C#N)C3=NC(=NC=C3)NCCC4=CN=CC=C4 + C[C@]1(O)C[C@@H](c2nc(-c3ccc4ccc(-c5ccccc5)nc4c3)c3c(N)nccn32)C1 [Linsitinib] (partner 1 µM)
Procedure, shortened: as §1

Vandetanib + Linsitinib = compound: COc1cc2/c(=N/c3ccc(Br)cc3F)nc[nH]c2cc1OCC1CCN(C)CC1 [Vandetanib] + C[C@]1(O)C[C@@H](c2nc(-c3ccc4ccc(-c5ccccc5)nc4c3)c3c(N)nccn32)C1 [Linsitinib] (partner 1 µM)
Procedure, shortened: as §1

Vandetanib + OSI-027 = compound: COc1cc2/c(=N/c3ccc(Br)cc3F)nc[nH]c2cc1OCC1CCN(C)CC1 [Vandetanib] + COc1cccc2cc(-c3nc([C@H]4CC[C@H](C(=O)O)CC4)n4ncnc(N)c34)[nH]c12 [OSI-027] (partner 0.5 µM)
Procedure, shortened: as §1

Row | Cell Line | relative viability (CUDC-101 + Bortezomib; first compound 0.01 µM) | relative viability (CUDC-101 + Bortezomib; first compound 0.03162 µM) | relative viability (CUDC-101 + Bortezomib; first compound 0.1 µM) | relative viability (CUDC-101 + Bortezomib; first compound 0.3162 µM) | relative viability (CUDC-101 + Bortezomib; first compound 1 µM) | relative viability ([1]; first compound 0.005 µM) | relative viability ([1]; first compound 0.01581 µM) | relative viability ([1]; first compound 0.05 µM) | relative viability ([1]; first compound 0.1581 µM) | relative viability ([1]; first compound 0.5 µM) | relative viability (Vandetanib + Linsitinib; first compound 0.02 µM) | relative viability (Vandetanib + Linsitinib; first compound 0.06325 µM) | relative viability (Vandetanib + Linsitinib; first compound 0.2 µM) | relative viability (Vandetanib + Linsitinib; first compound 0.6325 µM) | relative viability (Vandetanib + Linsitinib; first compound 2 µM) | relative viability (Vandetanib + OSI-027; first compound 0.02 µM) | relative viability (Vandetanib + OSI-027; first compound 0.06325 µM) | relative viability (Vandetanib + OSI-027; first compound 0.2 µM) | relative viability (Vandetanib + OSI-027; first compound 0.6325 µM) | relative viability (Vandetanib + OSI-027; first compound 2 µM)
1 | HOP-62 | 0.605 | 0.773 | 1.09 | 0.667 | 0.473 | 1.13 | 1.19 | 0.919 | 1.21 | 0.932 | 1.04 | 0.965 | 0.926 | 1.05 | 0.977 | 0.789 | 0.739 | 0.815 | 0.903 | 0.846
2 | NCI-H2085 | 1.07 | 1.08 | 0.97 | 1.06 | 0.915 | 0.694 | 0.978 | 0.867 | 1.04 | 0.839 | 1.01 | 0.837 | 0.855 | 0.945 | 0.793 | 0.797 | 0.795 | 0.735 | 0.673 | 0.559
3 | NCI-H2087 | 0.813 | 0.871 | 0.614 | 0.754 | 0.445 | 1.03 | 0.954 | 1.07 | 1.1 | 0.915 | 0.918 | 1.03 | 0.831 | 0.922 | 0.911 | 0.524 | 0.526 | 0.581 | 0.614 | 0.513
4 | COR-L 105 | 0.833 | 0.963 | 0.639 | 0.611 | 0.176 | 0.956 | 1.04 | 1.11 | 1.11 | 0.992 | 0.891 | 0.877 | 0.976 | 0.54 | 0.444 | 0.629 | 0.641 | 0.507 | 0.411 | 0.329
5 | CAL-12T | 1.04 | 1.18 | 0.983 | 0.926 | 0.741 | 0.76 | 0.781 | 0.671 | 0.991 | 0.839 | 0.874 | 0.774 | 0.923 | 0.781 | 0.647 | 0.701 | 0.655 | 0.541 | 0.626 | 0.291
6 | A-427 | 0.936 | 1.01 | 0.925 | 0.985 | 0.878 | 1.05 | 1.12 | 1.11 | 1.17 | 1.13 | 1.05 | 1.05 | 1.11 | 1.04 | 1.12 | 0.542 | 0.486 | 0.53 | 0.481 | 0.432

Reference: the supplement of paper PMC10307832
